Tests used:
KKA^y mice [1] = assay: Hypoglycemic and hypolipidemic (hypotriglyceridemic) actions in mice; type: in vivo; details: four days; for Hypoglycemic action (%): percent decrease of plasma glucose vs non-administration group (100%); for Hypolipidemic action (%): percent decrease of plasma triglyceride vs non-administration group (100%)
Description: Test compounds were mixed in a powdery diet (CE-2, Japan Clea) at the concentration of 0.01% (compound of Example 2) or 0.005% (compound of Example 4), and freely given to KKA^y mice (11 to 12 weeks old, 5 mice per group), a model of obesity and type II diabetes, for four days. During this period, water was given freely. Blood was sampled from orbital venous plexus, and glucose and triglyceride levels in plasma separated from blood were determined enzymatically using L type Wako Glu2 (Wako Pure Chemical Industries, Ltd.) or L type Wako TG•H (Wako Pure Chemical Industries, Ltd.), respectively.

KKA^y mice [2] = assay: Total cholesterol lowering action and plasma anti-arteriosclerosis index-increasing action in mice; type: in vivo; details: 0.005% in powdery diet, four days
Description: Test compound was mixed in a powdery diet (CE-2, Japan Clea) at the concentration of 0.005%, and freely given to KKA^y mice (12 weeks old, 5 mice per group), a model of obesity and type II diabetes, for four days. During this period, water was given freely. Blood was sampled from orbital venous plexus and plasma was separated and analyzed for components. Total cholesterol levels were determined using L type Wako Cholesterol (Wako Pure Chemical Industries, Ltd.). Precipitation reagent for apoB containing lipoprotein (Wako Pure Chemical Industries, Ltd.) was added to a part of the plasma to allow precipitation of non-HDL lipoprotein, and cholesterol (HDL cholesterol) in the resulting supernatant was determined. The plasma anti-arteriosclerosis index [(HDL cholesterol/total cholesterol)×100] was calculated using these cholesterol levels.
In the Table, "Total cholesterol lowering action (%)" represents the percent reduction (%) of total cholesterol level in the test compound administration group, when the total cholesterol level in the test compound non-administration group is taken as 100%. "Plasma anti-arteriosclerosis index-increasing action (%)" represents a percent increase (%) of plasma anti-arteriosclerosis index in the test compound administration group, when the plasma anti-arteriosclerosis index in the test compound non-administration group-is taken as 100%.

PPARγ-RXRα heterodimer = molecular target: T1, PPARγ-RXRα heterodimer (Homo sapiens, UniProt P37231); assay: PPARγ-RXRα heterodimer ligand activity (luciferase reporter in PPARγ:RXRα:4ERPP/CHO-K1 cells); type: cell-based; details: concentration for 50% of the maximum fold induction of luciferase activity, 48 hours
T1 construct: 1.4 kb DNA fragment containing PPARγ gene was recovered from the gel; expressed in transfected cells; host or cells: CHO-K1
T1 sequence (P37231 1-477 isoform P37231-2): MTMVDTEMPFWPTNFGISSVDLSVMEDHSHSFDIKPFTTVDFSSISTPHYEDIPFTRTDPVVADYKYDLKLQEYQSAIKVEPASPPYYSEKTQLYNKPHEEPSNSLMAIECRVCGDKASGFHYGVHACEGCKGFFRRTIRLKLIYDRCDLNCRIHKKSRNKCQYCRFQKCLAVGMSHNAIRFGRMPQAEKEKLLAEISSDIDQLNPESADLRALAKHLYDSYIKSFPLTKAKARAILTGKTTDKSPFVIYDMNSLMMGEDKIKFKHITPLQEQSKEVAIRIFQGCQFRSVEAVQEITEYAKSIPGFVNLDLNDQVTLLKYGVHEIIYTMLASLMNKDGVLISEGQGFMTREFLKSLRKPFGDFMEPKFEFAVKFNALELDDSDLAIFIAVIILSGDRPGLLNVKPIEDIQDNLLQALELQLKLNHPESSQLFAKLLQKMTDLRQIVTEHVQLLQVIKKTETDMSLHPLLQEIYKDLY
T1 sequence (P19793 1-462 partner): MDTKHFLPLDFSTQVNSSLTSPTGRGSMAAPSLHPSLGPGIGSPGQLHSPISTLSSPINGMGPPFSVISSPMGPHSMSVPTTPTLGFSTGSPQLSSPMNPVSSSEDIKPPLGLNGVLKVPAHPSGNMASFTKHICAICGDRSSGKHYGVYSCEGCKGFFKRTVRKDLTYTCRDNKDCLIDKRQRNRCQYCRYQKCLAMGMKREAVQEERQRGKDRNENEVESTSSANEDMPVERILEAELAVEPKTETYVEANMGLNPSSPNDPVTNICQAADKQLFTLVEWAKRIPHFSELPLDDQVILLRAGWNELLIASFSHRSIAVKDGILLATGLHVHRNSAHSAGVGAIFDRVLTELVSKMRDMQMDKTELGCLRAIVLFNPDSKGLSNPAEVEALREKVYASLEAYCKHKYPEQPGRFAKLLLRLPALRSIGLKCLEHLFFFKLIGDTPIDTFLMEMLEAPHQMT
Description: A PPARγ:RXRα:4ERPP/CHO-K1 cells obtained in Reference Example 5 to be described later were cultured in HAM F12 medium (produced by NISSUI PHARMACEUTICAL CO., LTD.) containing 10% fetal bovine serum (produced by Life Technologies, Inc., USA) and then inoculated to a 96-well white plate (produced by Corning Costar Corporation, USA) at the density of 2×10^4 cells/well, and cultured in a CO2 gas incubator at 37°C overnight.
After washing the 96 well white plate with PBS (phosphate-buffered saline), 90 µl of HAM F12 medium containing 0.1% fatty acid-free bovine serum albumin (BSA) and 10 µl of test compound were added, which was followed by culture in a CO2 gas incubator at 37°C for 48 hours. After removing the medium, 40 µl of PIKKAGENE 7.5 (produced by Wako Pure Chemical Industries, Ltd.) was added. After stirring, the luciferase activity was determined using Lumistar (produced by BMG Labtechnologies GmbH, Germany).
A fold induction was calculated based on the luciferase activity of each test compound where the luciferase activity in the test compound non-administration group was taken as 1. The values of the test compound concentration and the fold induction were analyzed using PRISM 2.01 (produced by GraphPad Software Inc., USA) to calculate the EC50 values, the effective concentration of the test compound for 50% of the maximum fold induction. […]

EC50 (PPARγ-RXRα heterodimer) [nM]	Structure (SMILES)	Hypoglycemic action (%) (KKA^y mice [1]; 0.005% in powdery diet)	Hypolipidemic action (%) (KKA^y mice [1]; 0.005% in powdery diet)	Plasma anti-arteriosclerosis index-increasing action (%) (KKA^y mice [2]; percent increase of index [(HDL cholesterol/total cholesterol)×100] vs non-administration group (100%))	Total cholesterol lowering action (%) (KKA^y mice [2]; percent reduction of total cholesterol level vs non-administration group (100%))	Hypoglycemic action (%) (KKA^y mice [1]; 0.01% in powdery diet)	Hypolipidemic action (%) (KKA^y mice [1]; 0.01% in powdery diet)
1.4	Cc1oc(-c2ccccc2)nc1COc1ccc(CO/N=C(\CCC(=O)O)c2ccccc2)cn1 [Example 4, (E)-4-[6-(5-methyl-2-phenyl-4-oxazolylmethoxy)-3-pyridylmethoxyimino]-4-phenylbutyric acid]	54	90	39	22		
1600	Cc1oc(-c2ccccc2)nc1COc1ccc2cc(CO/N=C(\CCC(=O)O)c3ccccc3)ccc2c1 [Example 2, (E)-4-[6-(5-methyl-2-phenyl-4-oxazolylmethoxy)-2-naphthylmethoxyimino]-4-phenylbutyric acid]					30	22

Source: patent EP1229026A1, “ALKOXYIMINOALKANOIC ACID DERIVATIVES” (Takeda Chemical Industries, Ltd., priority 1999, dated 2001)
